Data on 17 compounds can be found in patent US20250346592A1 (Celgene Corporation, priority 2022, published 2025).

The target of experiment [1] is T1, hPAD4 enzyme (Homo sapiens (Human), UniProt Q9UM07). The experiment in a line: RFMS1 assay (RapidFire mass spectrometry, BAEE substrate). It counts as biochemical. The conditions noted are these: 5 nM hPAD4, 250 μM BAEE, 30 min preincubation at 37° C., 90 min reaction; read-out: RFMS 1 IC50. Here is the method: Compounds were solubilized in 100% DMSO to achieve a 10 mM compound concentration. Compound stock solutions were stored at RT. A series of dilutions were prepared in DMSO and mixed 8 times with 20 μL mixing volume. Final top concentration of compound in the assay is 50 μM. Final assay conditions were as follows: • Reaction volume: 26 μl • Assay buffer: 25 mM hepes, pH 7.5, 5 mM NaCl, 1 mM DTT, 0.2 mg/ml BSA, 0.01% CHAPS, 50 µM Calcium, and 5 μM TPEN • Final concentrations: 5 nM hPAD4 enzyme, 250 µM BAEE, and 0.5% DMSO • Total incubation time: 30 mins compound and enzyme preincubation at 37° C., 90 min enzyme/substrate reaction, 30 min reaction with phenyl glyoxal at 37° C. • Stop solution: 40 μl 5% TCA in ACN • 0.13 μL of compound solution was added to 13 μL of 10 nM PAD4 in assay buffer. After […] min 13 μl of 500 µM of BAEE was added in 25 mM hepes, pH 7.5, 5 mM NaCl, 1 mM DTT, 0.2 mg/ml BSA, 0.01% CHAPS, 50 μM Calcium, 5 μM TPEN was added and the reaction incubated for 90 min at 37° C. The enzymatic reaction was quenched by addition of 15 μl of 6.1N TCA, 100% Final Concentration is 20%, 35 μl of 8.5 mM phenyl glyoxal (final concentration 4 mM) is then added and the reaction is incubated for 30 min at 37° C.
After 30 minutes the plates are spun down to remove all precipitate. The enzyme reaction was quenched with an equal volume of methanol containing internal standard (modified citrulline). Samples were loaded onto the Rapid Fire RF300 system (Agilent) wherein they were first sipped for 1000 ms and then directly loaded to a C18 separations cartridge using a mixture of acetonitrile containing 0.01% formic acid for 3000 ms desalting. The flow rate of the mobile phase was 1.5 ml/min. Once the samples were eluted from the cartridge, a mobile phase of acetonitrile containing 0.01% formic acid was used to move the samples into the mass spectrometer for 4000 ms at a flow rate of 1.25 ml/min/Sciex API5500 triple quadrupole mass spectrometer (Applied Biosystems) equipped with ESI was used to analyze the peptidyl citrulline and internal standard ions.
MRM transition of product and internal standard were monitored at m/z 424.5 to 350.4 and m/z 293 to 247 respectively. The dwell time for each transition was set at 200 ms, and the ESI voltage was used at 5500 with a source temperature of 400° C. Extracted ion peaks for each transition were integrated using the Rapid Fire Integrator software. Peak area of analyte was normalized with internal standard.).
Compounds having an activity designated as “A” provided an IC50≤10 nM; compounds having an activity designated as “B” provided an IC50 11-100 nM; compounds having an activity designated as “C” provided an IC50 101-500 nM; compounds having an activity designated as “D” provided an IC50 501-1000 nM; compounds having an activity designated as “E” provided an IC50>1000 nM.

Experiment [2] concerns the target T1, hPAD4 enzyme. The experiment in a line: RFMS2 assay (RapidFire mass spectrometry, TSTGGRQGSHH peptide substrate). It counts as biochemical. Particulars: 35 nM recombinant human PAD4, 500 μM TSTGGRQGSHH peptide, 30 minutes at room temperature; read-out: RFMS 2 IC50. A digest of the protocol: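 IC50 derived from RapidFire LC-MS/MS (positive ESI MRM) of substrate versus product after a 30 min room-temperature reaction stopped with 10% formic acid. Reaction contained 35 nM human PAD4, 500 μM peptide, 2 mM CaCl2, 5 mM DTT at pH 7.4, and compounds diluted 3-fold from 20 μM.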

Structures are written as SMILES. A value given as a limit tells only on which side of the number the result lay.

T1 sequence (Q9UM07 whole entry): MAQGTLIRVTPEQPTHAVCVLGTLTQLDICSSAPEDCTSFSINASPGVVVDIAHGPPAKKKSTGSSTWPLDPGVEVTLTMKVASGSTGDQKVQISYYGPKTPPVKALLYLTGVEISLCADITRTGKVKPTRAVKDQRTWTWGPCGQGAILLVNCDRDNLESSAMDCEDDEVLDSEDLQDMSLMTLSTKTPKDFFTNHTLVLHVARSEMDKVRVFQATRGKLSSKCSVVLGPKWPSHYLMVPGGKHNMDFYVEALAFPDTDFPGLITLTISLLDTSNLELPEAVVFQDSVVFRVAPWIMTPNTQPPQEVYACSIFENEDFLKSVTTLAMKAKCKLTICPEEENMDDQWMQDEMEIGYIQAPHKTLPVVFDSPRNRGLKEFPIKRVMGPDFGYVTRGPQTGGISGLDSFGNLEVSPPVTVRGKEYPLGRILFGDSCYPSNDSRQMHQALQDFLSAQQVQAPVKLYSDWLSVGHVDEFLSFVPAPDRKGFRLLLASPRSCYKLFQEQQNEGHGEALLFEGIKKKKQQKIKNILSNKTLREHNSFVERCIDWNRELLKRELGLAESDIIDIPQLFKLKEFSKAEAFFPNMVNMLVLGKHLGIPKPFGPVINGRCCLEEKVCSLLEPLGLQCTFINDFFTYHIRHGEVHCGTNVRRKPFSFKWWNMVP

The term IC50 denotes the point on the concentration scale where inhibition reaches its midpoint. For the compound `COC(=O)N[C@@H](C)COc1cccc2cc(-c3nc4cc5c(cc4n3C)CCN(C[C@H](N)CF)C5=O)n(CC3CC3)c12` [Example 208, methyl ((S)-1-((2-(6-((S)-2-amino-3-fluoropropyl)-1-methyl-5-oxo-5,6,7,8-tetrahydro-1H-imidazo[4,5-g]isoquinolin-2-yl)-1-(cyclopropylmethyl)-1H-indol-7-yl)oxy)propan-2-yl)carbamate], the half-inhibitory concentration (IC50) is 11 to 100 nM at hPAD4 enzyme [1] and 101 to 500 nM at hPAD4 enzyme [2]. For `COc1cccc2cc(-c3nc4cc5c(cc4n3C)CCN(C[C@H](N)CF)C5=O)n(Cc3nc(C)co3)c12` [Example 124, (S)-6-(2-amino-3-fluoropropyl)-2-(7-methoxy-1-((4-methyloxazol-2-yl)methyl)-1H-indol-2-yl)-1-methyl-1,6,7,8-tetrahydro-5H-imidazo[4,5-g]isoquinolin-5-one], the IC50 on hPAD4 enzyme [1] is 11 to 100 nM; on hPAD4 enzyme [2], 101 to 500 nM. With `COc1cccc2cc(-c3nc4cc5c(cc4n3C)CCN(C[C@H](N)CF)C5=O)n(Cc3nccs3)c12` [Example 127, (S)-6-(2-amino-3-fluoropropyl)-2-(7-methoxy-1-(thiazol-2-ylmethyl)-1H-indol-2-yl)-1-methyl-1,6,7,8-tetrahydro-5H-imidazo[4,5-g]isoquinolin-5-one], the IC50 at hPAD4 enzyme [1] and on hPAD4 enzyme [2] was 101 to 500 nM in each case.

As for `Cn1c(-c2cc3cccc(OC[C@@H]4CNC(=O)C4)c3n2CC2CC2)nc2cc3c(cc21)CCN(C[C@H](N)CF)C3=O` [Example 190, 6-((S)-2-amino-3-fluoropropyl)-2-(1-(cyclopropylmethyl)-7-(((S)-5-oxopyrrolidin-3-yl)methoxy)-1H-indol-2-yl)-1-methyl-1,6,7,8-tetrahydro-5H-imidazo[4,5-g]isoquinolin-5-one], the IC50 at hPAD4 enzyme [1] was no more than 10 nM; at hPAD4 enzyme [2] it was 11 to 100 nM. The like results for `Cn1c(-c2cc3cccc(OC[C@@H]4CNC(=O)O4)c3n2CC2CC2)nc2cc3c(cc21)CCN(C[C@H](N)CF)C3=O` [Example 206, (S)-5-(((2-(6-((S)-2-amino-3-fluoropropyl)-1-methyl-5-oxo-5,6,7,8-tetrahydro-1H-imidazo[4,5-g]isoquinolin-2-yl)-1-(cyclopropylmethyl)-1H-indol-7-yl)oxy)methyl)oxazolidin-2-one] were, in that order, no more than 10 nM and 11 to 100 nM. In the case of `COCCn1c(-c2nc3cc4c(cc3n2C)CCN(C[C@H](N)CF)C4=O)cc2cccc(OC)c21` [Example 102, (S)-6-(2-amino-3-fluoropropyl)-2-(7-methoxy-1-(2-methoxyethyl)-1H-indol-2-yl)-1-methyl-1,6,7,8-tetrahydro-5H-imidazo[4,5-g]isoquinolin-5-one], the IC50 at hPAD4 enzyme [1] and at hPAD4 enzyme [2] was 101 to 500 nM each time. Regarding `Cc1cc(C(N)=O)c(F)cc1-c1ccc2cc(-c3nc4cc5c(cc4n3C)CCN(C[C@H](N)CF)C5=O)n(CC3CC3)c2n1` [Example 60, (S)-4-(2-(6-(2-amino-3-fluoropropyl)-1-methyl-5-oxo-5,6,7,8-tetrahydro-1H-imidazo[4,5-g]isoquinolin-2-yl)-1-(cyclopropylmethyl)-1H-pyrrolo[2,3-b]pyridin-6-yl)-2-fluoro-5-methylbenzamide], the IC50 at hPAD4 enzyme [1] was in the range of 11 to 100 nM; on hPAD4 enzyme [2], 101 to 500 nM. Consider `Cn1c(-c2cc3cccc(CCCn4ccnc4)c3n2CC2CC2)nc2cc3c(cc21)CCN(C[C@H](N)CF)C3=O` [Example 228, (S)-2-(7-(3-(1H-imidazol-1-yl)propyl)-1-(cyclopropylmethyl)-1H-indol-2-yl)-6-(2-amino-3-fluoropropyl)-1-methyl-1,6,7,8-tetrahydro-5H-imidazo[4,5-g]isoquinolin-5-one], for which the results for the IC50 on hPAD4 enzyme [1] and on hPAD4 enzyme [2] were no more than 10 nM and 101 to 500 nM, respectively. In the same order, the values of `COc1cccc2cc(-c3nc4cc5c(cc4n3C)CCN(C[C@@H](C)N)C5=O)n(CC3CC3)c12` [Example 35, (R)-6-(2-aminopropyl)-2-(1-(cyclopropylmethyl)-7-methoxy-1H-indol-2-yl)-1-methyl-1,6,7,8-tetrahydro-5H-imidazo[4,5-g]isoquinolin-5-one] are 11 to 100 nM and 11 to 100 nM. As to `C[C@@H](COc1cccc2cc(-c3nc4cc5c(cc4n3C)CCN(C[C@H](N)CF)C5=O)n(CC3CC3)c12)n1ccnc1` [Example 212, 2-(7-((S)-2-(1H-imidazol-1-yl)propoxy)-1-(cyclopropylmethyl)-1H-indol-2-yl)-6-((S)-2-amino-3-fluoropropyl)-1-methyl-1,6,7,8-tetrahydro-5H-imidazo[4,5-g]isoquinolin-5-one], the IC50 on hPAD4 enzyme [1] was no more than 10 nM; at hPAD4 enzyme [2], 11 to 100 nM. For the compound `C[C@@H](N)CN1CCc2c(cc3nc(-c4cc5ccccc5n4CC4CC4)n(C)c3c2F)C1=O` [Example 237, (R)-6-(2-aminopropyl)-2-(1-(cyclopropylmethyl)-1H-indol-2-yl)-9-fluoro-1-methyl-1,6,7,8-tetrahydro-5H-imidazo[4,5-g]isoquinolin-5-one], the IC50 on hPAD4 enzyme [1] and on hPAD4 enzyme [2] was 101 to 500 nM in each case. With `C[C@H](COc1cccc2cc(-c3nc4cc5c(cc4n3C)CCN(C[C@H](N)CF)C5=O)n(CC3CC3)c12)n1cnc(F)c1` [Example 217, 6-((S)-2-amino-3-fluoropropyl)-2-(1-(cyclopropylmethyl)-7-((R)-2-(4-fluoro-1H-imidazol-1-yl)propoxy)-1H-indol-2-yl)-1-methyl-1,6,7,8-tetrahydro-5H-imidazo[4,5-g]isoquinolin-5-one], at hPAD4 enzyme [1], the IC50 was no more than 10 nM. `Cc1cc(N2CCCS2(=O)=O)ccc1-c1ccc2cc(-c3nc4cc5c(cc4n3C)CCN(C[C@H](N)CF)C5=O)n(CC3CC3)c2n1` [Example 57, (S)-6-(2-amino-3-fluoropropyl)-2-(1-(cyclopropylmethyl)-6-(4-(1,1-dioxidoisothiazolidin-2-yl)-2-methylphenyl)-1H-pyrrolo[2,3-b]pyridin-2-yl)-1-methyl-1,6,7,8-tetrahydro-5H-imidazo[4,5-g]isoquinolin-5-one]: the IC50 on hPAD4 enzyme [1] lay in the range of 11 to 100 nM. The same measure, in the same setting: under `Cn1c(-c2cc3cccc(OC(F)Cn4ccnc4)c3n2CC2CC2)nc2cc3c(cc21)CCN(C[C@H](N)CF)C3=O` (single isomer, unassigned) [Example 226a] stands no more than 10 nM; under `C[C@H](COc1cccc2cc(-c3nc4cc5c(c(F)c4n3C)CCN(C[C@H](N)CF)C5=O)n(CC3CC3)c12)n1cnc(F)c1` [Example 241, 6-((S)-2-amino-3-fluoropropyl)-2-(1-(cyclopropylmethyl)-7-((R)-2-(4-fluoro-1H-imidazol-1-yl)propoxy)-1H-indol-2-yl)-9-fluoro-1-methyl-1,6,7,8-tetrahydro-5H-imidazo[4,5-g]isoquinolin-5-one], no more than 10 nM; under `CCc1nc(N2CCOC2=O)ccc1-c1ccc2cc(-c3nc4cc5c(cc4n3C)CCN(C[C@H](N)CF)C5=O)n(CC3CC3)c2n1` [Example 61, (S)-3-(5-(2-(6-(2-amino-3-fluoropropyl)-1-methyl-5-oxo-5,6,7,8-tetrahydro-1H-imidazo[4,5-g]isoquinolin-2-yl)-1-(cyclopropylmethyl)-1H-pyrrolo[2,3-b]pyridin-6-yl)-6-ethylpyridin-2-yl)oxazolidin-2-one], 11 to 100 nM.

Regarding `Cc1cc(C(N)=O)c(F)cc1-c1ccc2cc(-c3nc4cc5c(cc4n3C)CCN(C[C@H]3COCCN3)C5=O)n(CC3CC3)c2n1` [Example 245, (S)-4-(1-(cyclopropylmethyl)-2-(1-methyl-6-(morpholin-3-ylmethyl)-5-oxo-5,6,7,8-tetrahydro-1H-imidazo[4,5-g]isoquinolin-2-yl)-1H-pyrrolo[2,3-b]pyridin-6-yl)-2-fluoro-5-methylbenzamide], the IC50 on hPAD4 enzyme [1] was 101 to 500 nM.
